# Measurements reported in patent US20250270549A1, “MSI2 AS A THERAPEUTIC TARGET FOR THE TREATMENT OF MYOTONIC DYSTROPHY” (UNIVERSITAT DE VALÈNCIA, priority 2021, published 2025).
# Assays:
# P21 = P21 expression by RT-qPCR in MD1 muscle cells; format: cell-based, H. sapiens
# Procedure: (§1) TDMs were cultured as previously described^1. After 4 days in differentiation medium (MDM), cells were transfected with a combination of two siRNAs (SEQ ID NO: 40 and 43) targeting MSI2 transcripts (final concentration 100 nM) using Lipofectamine RNAiMAX transfection reagent (Invitrogen, Madrid, Spain)) following the manufacturer's recommendations. After 48 h, the medium containing the siRNAs was replaced by fresh MDM. 24 h later, cells were collected. As a control, the same protocol was performed using 100 nM of a siRNA with a scrambled sequence (Cat #4390843 for negative control). Gapmers against MSI2 and agomiR-107 were transfected following the same protocol using two different concentrations, 30 and 150 nM in the case of Gapmers and 100 and 300 nM in the case of agomiR-107. To treat cells with the small molecule Ro-08-2750 (Tocris Cat. No. 2272, Bristol, UK)), cells were cultured as before. Briefly, after 96 h in MDM, the medium was supplemented with Ro-08-2750 at a final concentration of 10 μM (0.8% DMSO) or with the vehicle, DMSO 0.8%, for 48 h. Then cells were collected for further analyses.
# (§2) All the procedures were performed as previously described^1.
# TGFBR1 = TGFBR1 expression by RT-qPCR in MD1 muscle cells; format: cell-based, H. sapiens
# Procedure: as §1, §2
# [1] = MD1 TDMs, Ro-08-2750 10 μM / agomiR-107
smiles,measurement,setting,value
"Cc1cc2nc3c(=O)[nH]c(=O)nc-3n(C)c2cc1C=O [Ro 08-2750, 2,3,4,10-Tetrahydro-7,10-dimethyl-2,4-dioxobenzo[g]pteridine-8-carboxaldehyde]",expression of P21,"P21; 10 μM, all cell lines (immortalized DM1 myoblasts, DM1-14, DM1-16)",rescued
same,P21 levels,P21; [1],not to produce a significant effect
same,expression of TGFBR1,"TGFBR1; 10 μM, DM1-14",rescued
same,TGFBR1 levels,TGFBR1; [1],sufficient to reduce
